Assay results: US6861390B2, “Derivatives of UK-2A” (priority 2001, dated 2005)

Legend:
[1] = system: Leptosphaeria nodorum (LEPTNO); experiment: Glume Blotch of Wheat, whole plant 24 Hour Protectant (T2); details: Parastagonospora nodorum; wheat (cultivar Yuma), sprayed at 100 ppm, inoculated after 24 hours; read-out: T2 LEPTNO in vivo 1 Day Protectant, control of fungal infection
[2] = system: Phytophthora infestans (PHYTIN); experiment: whole plant or invertebrate; details: in Solanum lycopersicum, 24 h, read-out: T3 PHYTIN in vivo 1 Day Protectant, control of fungal infection
[3] = system: Puccinia recondita (PUCCRT); experiment: Brown Rust of Wheat, whole plant 24 Hour Protectant (T5); details: wheat (cultivar Yuma), sprayed at 100 ppm, inoculated after 24 hours, read-out: T5 PUCCRT in vivo 1 Day Protectant, control of fungal infection
[4] = system: Septoria tritici (SEPTTR); experiment: Leaf Blotch of Wheat, whole plant 24 Hour Protectant (T6); details: Zymoseptoria tritici; wheat (cultivar Monon), sprayed at 100 ppm, inoculated after 24 hours; read-out: T6 SEPTTR in vivo 1 Day Protectant, control of fungal infection
[5] = system: Stagonospora nodorum (Leptosphaeria nodorum, LEPTNO); experiment: microbe, parasite or virus in culture; assay type: cell-based; details: Parastagonospora nodorum, read-out: T7 LEPTNO in vitro Growth Inhibition
[6] = system: Phytophthora infestans (PHYTIN); experiment: microbe, parasite or virus in culture; assay type: cell-based; details: in Secale cereale, read-out: T8 PHYTIN in vitro Growth Inhibition
[7] = system: Magnaporthe grisea (Pyricularia oryzae, PYRIOR); experiment: microbe, parasite or virus in culture; assay type: cell-based; details: read-out: T9 PYRIOR in vitro Growth Inhibition
[8] = system: Rhizoctonia solani (RHIZSO); experiment: microbe, parasite or virus in culture; assay type: cell-based; details: read-out: T10 RHIZSO in vitro Growth Inhibition
[9] = system: Mycosphaerella graminicola (Septoria tritici, SEPTTR); experiment: microbe, parasite or virus in culture; assay type: cell-based; details: Zymoseptoria tritici, read-out: T11 SEPTTR in vitro Growth Inhibition
[10] = system: Ustilago maydis (USTIMA); experiment: microbe, parasite or virus in culture; assay type: cell-based; details: Mycosarcoma maydis, read-out: T12 USTIMA in vitro Growth Inhibition
[11] = system: Erysiphe graminis (ERYSGT); experiment: Powdery Mildew of Wheat, whole plant 24 Hour Protectant (T1); details: Blumeria graminis, in Triticum aestivum, read-out: T1 ERYSGT in vivo 1 Day Protectant, control of fungal infection

| SMILES | pest or weed control at 100 ppm [1] [%] | pest or weed control at 100 ppm [2] [%] | pest or weed control at 100 ppm [3] [%] | pest or weed control at 100 ppm [4] [%] | inhibition at 25 ppm [5] [%] | inhibition at 25 ppm [6] [%] | inhibition at 25 ppm [7] [%] | inhibition at 25 ppm [8] [%] | inhibition at 25 ppm [9] [%] | inhibition at 25 ppm [10] [%] | melting point [°C] | pest or weed control at 100 ppm [11] [%] |
| --- | --- | --- | --- | --- | --- | --- | --- | --- | --- | --- | --- | --- |
| COc1ccnc(C(=O)N[C@H]2COC(=O)[C@H](Cc3ccccc3)[C@@H](OC(=O)C(C)C)[C@H](C)OC2=O)c1OCOC(=O)c1ccccc1 [Compound 29] | 75 to 100 | < 25 | 75 to 100 | 75 to 100 | > 80 | < 80 | < 80 | < 80 | < 80 | < 80 | 65 to 70 | 25 to 74 |
| CCOCC(=O)OCOc1c(OC)ccnc1C(=O)N[C@H]1COC(=O)[C@H](Cc2ccccc2)[C@@H](OC(=O)C(C)C)[C@H](C)OC1=O [Compound 31] | 75 to 100 | < 25 | 75 to 100 | 75 to 100 | > 80 | < 80 | > 80 | < 80 | < 80 | < 80 | 79 to 81 | 25 to 74 |
| COc1ccnc(C(=O)N[C@H]2COC(=O)[C@H](Cc3ccccc3)[C@@H](OC(=O)C(C)C)[C@H](C)OC2=O)c1OCOC(=O)C1CCCC1 [Compound 33] | 75 to 100 | < 25 | 75 to 100 | 75 to 100 | > 80 | < 80 | > 80 | < 80 | < 80 | < 80 | 128 to 129 | 25 to 74 |
| COC(=O)OCOc1c(OC)ccnc1C(=O)N[C@H]1COC(=O)[C@H](Cc2ccccc2)[C@@H](OC(=O)C(C)C)[C@H](C)OC1=O [Compound 44] | 75 to 100 | < 25 | 75 to 100 | 75 to 100 | > 80 | < 80 | < 80 | < 80 | > 80 | < 80 | 140 to 144 | 25 to 74 |
| COc1ccnc(C(=O)N[C@H]2COC(=O)[C@H](Cc3ccccc3)[C@@H](OCC(C)C)[C@H](C)OC2=O)c1OCOC(C)=O [Compound 49] | 75 to 100 | 25 to 74 | 75 to 100 | 75 to 100 | > 80 | < 80 | > 80 | < 80 | > 80 | < 80 | 130 to 131 | 75 to 100 |
| COc1ccnc(C(=O)N[C@H]2COC(=O)[C@H](Cc3ccccc3)[C@@H](OC3CCCC3)[C@H](C)OC2=O)c1OCOC(C)=O [Compound 50] | 75 to 100 | 25 to 74 | 75 to 100 | 75 to 100 | > 80 | < 80 | > 80 | < 80 | < 80 | < 80 | 130 to 132 | 25 to 74 |
